The term IC50 denotes the concentration that inhibits the measured activity by half.

The source of these data is patent US20170014375A1, “PHARMACEUTICAL COMPOSITION COMPRISING EFFECTIVE DOSE OF POMIFERIN FOR TREATING CANCERS” (Macau University of Science and Technology, priority 2015, published 2017).

For experiment [1], the system named is Bax-Bak double knock out (DKO) mouse embryonic fibroblasts. Briefly: MTT cytotoxicity assay, Bax-Bak DKO MEFs. The class given is cell-based. Conditions: Fibroblast, 72 h, 3 days, read-out: Means of IC50. As to the method:
The test compound of pomiferin is dissolved in DMSO at a final concentration of 100 mmol/L and stored at −20° C. Cytotoxicity is assessed using the 3-(4,5-dimethylthiazol-2-yl)-2,5-diphenyltetrazolium bromide assay as previously described^29. 2500 of caspase wild-type (caspase WT), caspase-3 deficient (caspase 3KO), caspase-7 deficient (caspase 7KO), caspase-3/-7 deficient (caspase 3/7 DKO), caspase-8 deficient (caspase 8KO), Bax-Bak wild-type (Bak-Bak WT) and Bax-Bak double knock out (Bak-Bak DKO) mouse embryonic fibroblasts (MEFs) are seeded on 96-well plates per well. After overnight pre-incubation, the cells are exposed to different concentrations of pomiferin (namely 100, 50, 25, 12.5, 6.25, 3.125, 1.5625, 0.78, 0.39, 0.195, 0.079, 0.039 μmol/L) for 3 days. Subsequently, 10 μL of MTT reagents is added to each well and incubated at 37° C. for 4 hours, followed by the addition of 100 μL solubilization buffer (10% SDS in 0.01 mol/L HCl) and overnight incubation. Absorbance at 585 nm is determined from each well on the following day. The percentage of cell viability is calculated using the following formula: Cell viability (%)=Cells numbertreated/Cells numberDMSO control×100. Data is obtained from three independent experiments.
(In general: Formazan colour is commonly taken as a measure of viable cells.)

In another experiment the test system is Bax-Bak wild-type MEFs. Briefly: Annexin V/PI flow cytometry cell death, Bax-Bak wild-type MEFs. The class given is cell-based, mouse. Conditions: 5 μM, 24 h. How it is done: (§1) Cell death is measured using an annexin V staining kit (BD Biosciences, San Jose, Calif., USA). Briefly, Bax-Bak wild-type and Bax-Bak DKO MEFs are treated with the 5 μM pomiferin for 24 h. Cells are then harvested and analysed by multiparametric flow cytometry using FITC-Annexin V and Propidium iodide staining (BD Biosciences, San Jose, Calif., USA) according to the manufacturer's instructions. Flow cytometry is then carried out using a FACSCalibur flow cytometer (BD Biosciences, San Jose, Calif., USA). Data acquisition and analysis is performed with CellQuest (BD Biosciences, San Jose, Calif., USA). Data are obtained from three independent experiments.

The test system of another experiment is Bax-Bak DKO MEFs. Description: Annexin V/PI flow cytometry cell death, Bax-Bak DKO MEFs. It is filed as cell-based, mouse. The following applies: 24 h. How it is done: as §1, with “experiments. Cell death is measured using an annexin V staining kit (BD Biosciences, San Jose, Calif., USA). Briefly, Bax-Bak DKO MEFs are treated with the 5 μM pomiferin in the presence or absence of 5 mM autophagic inhibitor 3-MA for 24 h. Cells are then harvested and analysed by multiparametric flow cytometry using FITC-Annexin V and Propidium iodide staining (BD Biosciences, San Jose, Calif., USA) according to the manufacturer's instructions. Flow cytometry is then carried out using a FACSCalibur flow cytometer (BD Biosciences, San Jose, Calif., USA). Data acquisition and analysis is performed with CellQuest (BD Biosciences, San Jose, Calif., USA). Data are obtained from three independent experiments.” for “experiments.”

For the next experiment, the system named is HeLa cancer cells. Briefly: Western blot of autophagic marker LC3-II conversion. The class given is cell-based, human. Conditions: 0-15 μM, FIG. 1A. How it is done:
After pomiferin treatments in the presence or absence of lysosomal inhibitor 50 nM of Bafilomycin A1 or autophagy inhibitor 5 mM 3-MA, HeLa cancer cells are harvested and lysed in RIPA buffer (Cell Signaling Technologies Inc., Beverly, Mass.). The cell lysates are then resolved by SDS-PAGE. After electrophoresis, the proteins from SDS-PAGE are transferred to nitrocellulose membrane which is then blocked with 5% non-fat dried milk for 60 minutes. The membrane is then incubated with LC3 primary antibodies (1:1000) in TBST overnight at 4° C. After that, the membrane is further incubated with HRP-conjugated secondary antibodies for 60 minutes. Finally, protein bands are visualized by using the ECL Western Blotting Detection Reagents (Invitrogen, Paisley, Scotland, UK).
For orientation: Immunoblotting shows a protein as a band on a membrane.

Experiment [2] deals with Hep3B, HepG2, H1299, MCF-7, A549 cancer cells and normal human hepatocyte (LO2). Description: Endogenous LC3 puncta immunofluorescence in cancer and normal cells. The following applies: 10 μM, FIG. 2. It is filed as cell-based. How it is done: The detection of endogenous LC3 puncta formation is conducted using immunofluorescence staining method as described below. In brief, pomiferin-treated cancer cells (Hep3B, HepG2, H1299, MCF-7 and A549) or normal human hepatocyte (LO2) on cover slips are fixed with 4% paraformaldehyde (Sigma) for 20 min at room temperature and then rinsed with PBS. Immerse coverslips in methanol at room temperature for 2 min. After ishing with PBS, the cells are then incubated with anti-LC3 (1:200) in TBST (100 mM Tris HCl, pH 7.5, 150 mM NaCl, 0.05% Tween 20 and 5% BSA) overnight at 4. […] The coverslips are then mounted with FluorSave™ mounting media (Calbiochem, San Diego, Calif., USA) for fluorescence imaging and localization of LC3 autophagosomes are captured under the API Delta Vision Live-cell Imaging System (Applied Precision Inc., GE Healthcare Company, Washington, USA). To quantify autophagy, guidelines are followed to monitor autophagy^20, the percentage of cells with punctuate LC3 immunofluorescence staining is calculated by counting the number of the cells showing the punctuate pattern of LC3 fluorescence (>10 dots/cell) in immunofluorescence positive cells over the total number of cells in the same field. A minimum of 1000 cells from randomly selected fields are scored.

For the molecule `CC(C)=CCc1c2c(c3occ(-c4ccc(O)c(O)c4)c(=O)c3c1O)C=CC(C)(C)O2` [pomiferin], in experiment [1], the IC50 was 986 nM. Besides, the cell death in the experiment on Bax-Bak wild-type MEFs is on record as around 40%; with Bax-Bak DKO MEFs (5 μM, annexin V flow cytometry, Bax-Bak DKO MEFs), around 80%. In addition, the “cell death (in words)” value with Bax-Bak DKO MEFs (5 μM pomiferin alone, Bax-Bak DKO cells, FIG. 8B) is given as “significantly induced cell death”. Moreover, the “autophagic marker LC3-II conversion” value in the experiment on HeLa cancer cells is “induced”. In addition, in experiment [2], the TRITC-LC3 puncta formation result was “induces TRITC-LC3 puncta formation in all tested cancer and normal cells”.
